These results are taken from patent US20070111208A1, “Determination of free fractions” (Bayer HealthCare AG, priority 2003, published 2007).

Data set [1] has as its system rat plasma. The data set can be described thus: Protein binding via distribution between diluted plasma and Transil (rat plasma). The note with it: Method A (Transil); Wistar rat, male; about 200 μg/l; LC/MS-MS or HPLC. The format is in vitro ADME. The procedure: Protein binding of all drugs was determined via partitioning between diluted plasma and Transil® in vitro. All incubations were performed in glass tubes. An isotonic potassium phosphate buffer, pH 7.4 (Dulbeccos PBS, Sigma D8534) was used for diluting the plasma.
The total incubation volume was generally between 0.3 and 1 ml. The diluted plasma (150 to 980 μl) of the test species was pipetted into glass tubes and Transil® (10 to 300 μl) was added. The test substance dissolved in a small volume of a suitable solvent was added to the Transil®-plasma suspensions.
The degree of the dilution and the Transil®-volume should be chosen with respect to the expected fu value. […]
The radioactivity concentration in the suspension was determined directly after incubation. The radioactivity concentration (or the drug concentration in the case of HPLC or LC/MS-MS analytics) in plasma was determined after centrifugation.
The free fraction in diluted plasma was calculated as the ratio of the partition coefficients for the Transil®/plasma′ (MAplasma) and the Transil®/buffer distribution (MAbuffer).
In a second experiment, the total amount in the Transil®-plasma suspension and the concentration in diluted plasma, Cplasma′, were determined. The partitioning between Transil® and the diluted plasma (the apparent membrane affinity in diluted plasma), MAplasma′, was calculated as: [formula] […]

Data set [2] deals with rat plasma. The data set can be described thus: Erythrocyte plasma partitioning (rat plasma). It is filed as in vitro ADME. The note with it: Method B (erythrocyte plasma partitioning); Wistar rat, male; about 200 μg/l. The procedure: Ultrafiltration, equilibrium dialysis and the determination of the free fraction of a drug via distribution between erythrocytes and plasma were performed as previously described^8,12.

For `O=C(NC[C@H]1CN(c2ccc(N3CCOCC3=O)cc2)C(=O)O1)c1ccc(Cl)s1` [Drug III], the fu in data set [1] is given as 1.62%; in data set [2] it was 1.49%.
